In data set [1] the target is Cytochrome P450 2C19 (Homo sapiens, UniProt P33261). Nature of the data set: Intrinsic clearance assessed as human recombinant CYP2C19-mediated drug depletion per pmol protein by LC-MS/MS method. In kind it is ADME. The conditions noted are these: recombinant enzyme.
Data set [2] concerns Homo sapiens. Nature of the data set: AUC (0 to infinity) in human at 15 mg, po administered as single dose by liquid scintillation counting method. As to conditions: in vivo. It is filed as ADME, organism-based, Plasma. Further details: dose 15 mg, time infinity, route oral.
The test system of data set [3] is Plasma. Nature of the data set: Drug level in human plasma treated with [14C}LY2452473 at 15 mg, po after 48 hrs administered as single dose by HPLC analysis. It is filed as ADME, organism-based. As to conditions: in vivo.
Data set [4] concerns Plasma. Nature of the data set: Drug level in plasma of human treated with [14C}LY2452473 at 15 mg, po administered as single dose by LC-MS/MS method. It is filed as ADME, organism-based. As to conditions: in vivo.
Data set [5] relates to Homo sapiens. Nature of the data set: AUC (0 to last) in human at 15 mg, po administered as single dose by liquid scintillation counting method. In kind it is ADME, organism-based, Plasma. On the set-up: dose 15 mg, time 0 - last, route oral. As to conditions: in vivo.
In data set [6] the test system is Homo sapiens. Nature of the data set: Cmax in human at 15 mg, po administered as single dose by liquid scintillation counting method. In kind it is ADME, organism-based. On the set-up: dose 15 mg, route oral. As to conditions: in vivo.
The test system of data set [7] is Plasma. Nature of the data set: Drug level in human plasma treated with [14C}LY2452473 at 15 mg, po after 2 hrs administered as single dose by HPLC analysis. It is filed as ADME, organism-based. As to conditions: in vivo.
Data set [8] deals with Homo sapiens. Nature of the data set: Apparent total body clearance in human at 15 mg, po administered as single dose by liquid scintillation counting method. It is filed as ADME, organism-based. The conditions noted are these: in vivo.
Data set [9] has as its system Plasma. Nature of the data set: Drug level in human plasma treated with [14C}LY2452473 at 15 mg, po after 24 hrs administered as single dose by HPLC analysis. In kind it is ADME, organism-based. As to conditions: in vivo.
Data set [10] has as its system Homo sapiens. Nature of the data set: Terminal half life in human at 15 mg, po administered as single dose by liquid scintillation counting method. The conditions noted are these: in vivo. In kind it is ADME, organism-based.
In data set [11] the target is T1, Cytochrome P450 2B6 (Homo sapiens, UniProt P20813).
T1 sequence (P20813 whole entry): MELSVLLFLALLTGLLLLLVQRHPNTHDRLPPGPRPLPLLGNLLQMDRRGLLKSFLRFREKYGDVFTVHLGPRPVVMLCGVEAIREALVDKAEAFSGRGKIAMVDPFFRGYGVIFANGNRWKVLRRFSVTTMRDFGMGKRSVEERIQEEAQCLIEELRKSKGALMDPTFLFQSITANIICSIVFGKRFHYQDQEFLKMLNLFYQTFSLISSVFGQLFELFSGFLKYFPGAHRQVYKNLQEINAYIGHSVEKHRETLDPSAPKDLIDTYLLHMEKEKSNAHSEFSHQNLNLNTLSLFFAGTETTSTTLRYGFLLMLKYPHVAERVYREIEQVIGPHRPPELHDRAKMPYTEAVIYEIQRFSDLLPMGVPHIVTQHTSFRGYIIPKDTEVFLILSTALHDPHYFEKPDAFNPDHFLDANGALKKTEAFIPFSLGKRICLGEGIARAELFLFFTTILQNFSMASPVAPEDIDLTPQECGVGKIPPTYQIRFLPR
Nature of the data set: Drug metabolism assessed as human recombinant CYP2B6-mediated drug depletion by LC-MS/MS method. In kind it is ADME. As to conditions: recombinant enzyme.

In data set [12] the test system is Plasma. Nature of the data set: Drug level in human plasma treated with [14C}LY2452473 at 15 mg, po after 4 hrs administered as single dose by HPLC analysis. In kind it is ADME, organism-based. The conditions noted are these: in vivo.
Data set [13] deals with Cytochrome P450 3A5 (Homo sapiens, UniProt P20815). Nature of the data set: Drug metabolism assessed as human recombinant CYP3A5-mediated drug depletion by LC-MS/MS method. In kind it is ADME. The conditions noted are these: recombinant enzyme.
Cytochrome P450 3A5, sequence (P20815 whole entry): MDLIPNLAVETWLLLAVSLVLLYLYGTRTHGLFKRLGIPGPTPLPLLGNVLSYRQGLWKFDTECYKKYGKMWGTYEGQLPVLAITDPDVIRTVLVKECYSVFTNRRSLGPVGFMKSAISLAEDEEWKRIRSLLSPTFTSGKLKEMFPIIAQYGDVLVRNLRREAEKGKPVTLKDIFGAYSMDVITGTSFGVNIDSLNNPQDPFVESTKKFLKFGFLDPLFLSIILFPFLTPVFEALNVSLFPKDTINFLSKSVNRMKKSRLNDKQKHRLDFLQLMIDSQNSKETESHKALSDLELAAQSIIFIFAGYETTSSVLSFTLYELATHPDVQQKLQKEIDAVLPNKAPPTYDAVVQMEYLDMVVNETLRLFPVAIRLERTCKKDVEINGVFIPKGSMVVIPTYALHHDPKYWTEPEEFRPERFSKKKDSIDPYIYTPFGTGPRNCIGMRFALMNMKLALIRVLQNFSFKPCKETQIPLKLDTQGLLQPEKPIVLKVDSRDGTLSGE
Data set [14] deals with Plasma. Nature of the data set: Drug level in human plasma treated with [14C}LY2452473 at 15 mg, po after 1 hr administered as single dose by HPLC analysis. In kind it is ADME, organism-based. The conditions noted are these: in vivo.
Data set [15] has as its target T2, Cytochrome P450 2C9 (Homo sapiens, UniProt P11712). Nature of the data set: Intrinsic clearance assessed as human recombinant CYP2C9-mediated drug depletion per pmol protein by LC-MS/MS method. The conditions noted are these: recombinant enzyme. It is filed as ADME.
Data set [16] concerns the target T3, Cytochrome P450 2J2 (Homo sapiens, UniProt P51589).
T3 sequence (P51589 whole entry): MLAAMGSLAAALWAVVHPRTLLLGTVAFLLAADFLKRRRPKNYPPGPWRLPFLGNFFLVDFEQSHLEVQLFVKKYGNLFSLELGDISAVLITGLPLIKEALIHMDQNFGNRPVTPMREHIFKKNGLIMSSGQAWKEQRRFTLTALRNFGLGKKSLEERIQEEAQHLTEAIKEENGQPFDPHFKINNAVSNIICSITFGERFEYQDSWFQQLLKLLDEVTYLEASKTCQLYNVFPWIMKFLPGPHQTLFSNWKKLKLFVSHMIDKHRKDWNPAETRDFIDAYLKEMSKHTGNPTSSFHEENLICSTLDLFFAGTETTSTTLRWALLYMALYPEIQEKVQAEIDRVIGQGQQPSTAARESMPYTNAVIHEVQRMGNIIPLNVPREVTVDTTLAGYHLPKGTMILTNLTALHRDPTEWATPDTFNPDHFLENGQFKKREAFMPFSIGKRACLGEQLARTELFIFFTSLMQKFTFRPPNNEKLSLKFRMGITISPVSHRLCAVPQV
Nature of the data set: Normalized intrinsic clearance assessed as human recombinant CYP2J2-mediated drug depletion per pmol protein by LC-MS/MS method. It is filed as ADME. As to conditions: recombinant enzyme.

In data set [17] the target is T2, Cytochrome P450 2C9. Nature of the data set: Fraction metabolized assessed as human recombinant CYP2C9-mediated drug depletion by LC-MS/MS method relative to total normalized intrinsic clearance. It is filed as ADME. The conditions noted are these: recombinant enzyme.
In data set [18] the test system is Plasma. Nature of the data set: Drug level in human plasma treated with [14C}LY2452473 at 15 mg, po after 8 hrs administered as single dose by HPLC analysis. It is filed as ADME, organism-based. The conditions noted are these: in vivo.
Data set [19] addresses T4, Cytochrome P450 1A2 (Homo sapiens, UniProt P05177).
T4 sequence (P05177 whole entry): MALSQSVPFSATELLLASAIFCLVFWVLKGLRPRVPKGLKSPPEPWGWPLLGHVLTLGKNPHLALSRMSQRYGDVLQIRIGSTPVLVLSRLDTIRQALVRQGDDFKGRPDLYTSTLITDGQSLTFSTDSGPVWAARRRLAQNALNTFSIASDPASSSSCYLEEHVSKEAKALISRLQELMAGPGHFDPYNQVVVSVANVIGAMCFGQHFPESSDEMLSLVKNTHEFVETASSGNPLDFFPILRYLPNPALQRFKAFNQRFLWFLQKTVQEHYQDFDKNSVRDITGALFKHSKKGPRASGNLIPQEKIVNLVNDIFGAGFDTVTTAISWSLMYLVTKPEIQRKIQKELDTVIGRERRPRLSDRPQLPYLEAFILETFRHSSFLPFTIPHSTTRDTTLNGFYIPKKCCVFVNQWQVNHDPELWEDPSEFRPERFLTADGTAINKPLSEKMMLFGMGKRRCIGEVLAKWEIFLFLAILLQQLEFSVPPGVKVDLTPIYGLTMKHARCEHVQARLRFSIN
Nature of the data set: Drug metabolism assessed as human recombinant CYP1A2-mediated drug depletion by LC-MS/MS method. It is filed as ADME. As to conditions: recombinant enzyme.

Data set [20] has as its target T5, Cytochrome P450 3A4 (Homo sapiens, UniProt P08684). Nature of the data set: Drug metabolism in human liver microsomes assessed as CYP3A4-mediated drug depletion in presence of CYP2D6 inhibitor quinidine by LC-MS/MS method. In kind it is ADME. For orientation: Microsomes from liver hold many membrane-bound enzymes, among them those of drug oxidation.
In data set [21] the target is T5, Cytochrome P450 3A4. Nature of the data set: Intrinsic clearance assessed as human recombinant CYP3A4-mediated drug depletion per pmol protein by LC-MS/MS method. It is filed as ADME. As to conditions: recombinant enzyme.
Data set [22] can be described thus: Drug level in urine of human treated with [14C}LY2452473 at 15 mg, po administered as single dose by LC-MS/MS method. It is filed as ADME, organism-based. As to conditions: in vivo.
A short description of data set [23]: Drug level in feces of human treated with [14C}LY2452473 at 15 mg, po administered as single dose by LC-MS/MS method. It is filed as ADME, organism-based. The conditions noted are these: in vivo.

One may read the AUC as concentration integrated over time. Higher therefore signals more exposure. By Cmax is commonly meant the highest concentration seen after dosing.

T5 sequence (P08684 whole entry): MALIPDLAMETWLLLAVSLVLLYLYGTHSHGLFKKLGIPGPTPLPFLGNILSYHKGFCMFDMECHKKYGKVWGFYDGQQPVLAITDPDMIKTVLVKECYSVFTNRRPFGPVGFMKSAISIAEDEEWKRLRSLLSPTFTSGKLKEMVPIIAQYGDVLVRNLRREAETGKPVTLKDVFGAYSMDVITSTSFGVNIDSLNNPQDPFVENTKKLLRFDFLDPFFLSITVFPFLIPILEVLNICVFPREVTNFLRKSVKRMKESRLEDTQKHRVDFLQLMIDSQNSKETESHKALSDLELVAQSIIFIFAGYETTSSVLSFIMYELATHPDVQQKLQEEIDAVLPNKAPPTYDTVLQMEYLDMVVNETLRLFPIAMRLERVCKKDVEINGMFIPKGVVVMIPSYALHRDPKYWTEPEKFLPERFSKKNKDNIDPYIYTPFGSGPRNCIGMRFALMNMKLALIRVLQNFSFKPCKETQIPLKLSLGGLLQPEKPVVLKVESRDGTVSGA
T2 sequence (P11712 whole entry): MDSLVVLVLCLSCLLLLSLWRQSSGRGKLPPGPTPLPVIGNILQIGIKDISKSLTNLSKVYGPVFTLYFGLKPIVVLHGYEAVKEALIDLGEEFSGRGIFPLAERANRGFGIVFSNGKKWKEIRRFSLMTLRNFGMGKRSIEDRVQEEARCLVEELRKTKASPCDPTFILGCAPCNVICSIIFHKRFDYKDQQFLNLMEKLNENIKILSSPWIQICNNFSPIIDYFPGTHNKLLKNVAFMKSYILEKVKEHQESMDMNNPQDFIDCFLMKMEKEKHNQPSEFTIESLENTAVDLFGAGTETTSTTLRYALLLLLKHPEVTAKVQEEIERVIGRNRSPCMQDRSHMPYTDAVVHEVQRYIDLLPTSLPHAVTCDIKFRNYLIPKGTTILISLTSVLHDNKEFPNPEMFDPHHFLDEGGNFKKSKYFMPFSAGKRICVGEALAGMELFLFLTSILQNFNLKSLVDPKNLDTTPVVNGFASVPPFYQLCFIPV
Cytochrome P450 2C19, sequence (P33261 whole entry): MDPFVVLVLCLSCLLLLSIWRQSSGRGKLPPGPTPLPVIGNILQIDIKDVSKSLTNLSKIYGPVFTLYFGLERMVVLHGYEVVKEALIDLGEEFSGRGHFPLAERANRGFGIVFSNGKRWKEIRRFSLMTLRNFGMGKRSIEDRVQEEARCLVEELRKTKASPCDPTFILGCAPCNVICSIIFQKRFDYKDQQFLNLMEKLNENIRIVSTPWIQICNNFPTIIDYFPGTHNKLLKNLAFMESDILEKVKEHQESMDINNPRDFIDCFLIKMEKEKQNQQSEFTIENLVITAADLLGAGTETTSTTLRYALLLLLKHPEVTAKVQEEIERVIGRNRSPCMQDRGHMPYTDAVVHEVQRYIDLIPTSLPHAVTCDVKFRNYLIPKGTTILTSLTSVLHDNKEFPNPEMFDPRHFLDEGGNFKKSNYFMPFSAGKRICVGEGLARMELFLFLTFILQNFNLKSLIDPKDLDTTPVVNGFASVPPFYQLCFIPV

Regarding `CC(C)OC(=O)N[C@H]1Cc2c(n(Cc3ccccn3)c3ccc(C#N)cc23)C1` [LY2452473], the CL in data set [1] is 0.3 µL/min; in data set [15], 0.1 µL/min; in data set [16], 18 µL/min; in data set [21] it was 0.75 µL/min. In data set [2], this compound registered an AUC of 1330 ng·h/mL. Moreover, the Drug uptake in data set [3] was determined as 27.67%; in data set [7], 72.93%; in data set [9] it was 28.81%; in [12], 66.33%; in data set [14], 74.5%; in data set [18] it was 42.36%. In addition, the Drug metabolism result is recorded as “metabolite_detected” in data set [4]; “metabolite_not_detected” in data set [11]; “metabolite_not_detected” in data set [13]; “metabolite_not_detected” in [19]; “metabolite_not_detected” in [20]; “metabolite_detected” in data set [22]. The Drug metabolism result in data set [23] is “metabolite_detected”. For the same compound, the AUClast in data set [5] stood at 1310 ng·h/mL. For the same compound, the Cmax in data set [6] was found to be 91.5 ng/mL. For the same compound, the CLt/F in data set [8] amounted to 11 L/h. In addition, the “beta t1/2” value in data set [10] stood at 27 h. Further, the Fm in data set [17] was 8.5%.

Values taken from ChEMBL document CHEMBL3525964 (Drug Metab Dispos, 2012).
